# According to patent publication US10130670B2, “Composition for treating or preventing inflammatory skin disease, comprising, as active ingredient, immature citrus fruit extract, or synephrine or salt thereof” (BIO SPERCTRUM, INC., priority 2013, dated 2018):
# Tests used:
# STAT6 [1] = assay: STAT6 phosphorylation by Western blot in IL-4 treated fibroblast; format: cell-based, human; details: 10, 100, 200 ppm synephrine for 60 minutes, then 50 ng/ml IL-4 for 20 minutes; NIH/3T3
# Description: Human normal fibroblast (human normal fibroblast, NIH/3T3, department of dermatology in Aju University) was inoculated into 24-well microplate with DMEM media so as to be about 2×10^5 cells per well, and cultured in 5% concentration of CO2 cultivator under the condition of 37° C. for 24 hours. And then, it was treated with 10, 100, 200 ppm of synephrine for 60 minutes, respectively and then 50 ng/ml of IL-4 was treated to cultivate for 20 minutes. Then, the cells were collected to dissolve and then determine the degree of phosphorylation inhibition of STAT6 through Western blot. The results are represented in FIG. 3.
# eotaxin-1 [2] = assay: extracellular secretion of eotaxin-1 by ELISA in IL-4 treated fibroblast; format: cell-based, human; details: 10, 100 and 200 μM synephrine; 50 ng/ml IL-4; 24 hours; NIH/3T3
# Description: Human normal fibroblast (human normal fibroblast, NIH/3T3, department of dermatology in Aju University) was inoculated into 24-well microplate with DMEM media so as to be about 2×10^5 cells per well, and cultured in 5% concentration of CO2 cultivator under the condition of 37° C. for 24 hours. And then, it was treated with 1, 10, 100 ppm of unripe Citrus unshiu fruit extract, or 10, 100 and 200 μM of synephrine, respectively and then was treated simultaneously with 50 ng/ml of interleukin-4 (R&D, Minneapolis Minn., IL-4), cultivated for 24 hours to collect cell culture media. And then, the degree of secretion of eotaxin-1 was determined by using ELISA kit. The results are represented in FIG. 2.
# eotaxin-1 mRNA = eotaxin-1 mRNA expression by quantitative Real-time PCR in IL-4 treated fibroblast; format: cell-based, human; details: 10, 100 and 200 μM synephrine; 50 ng/ml IL-4; 24 hours; NIH/3T3
# Description: Human normal fibroblast (human normal fibroblast, NIH/3T3, department of dermatology in Aju University) was inoculated into 24-well microplate with DMEM media to be about 2×10^5 cell per well, and cultured in 5% concentration of CO2 cultivator under 37° C. for 24 hours. And then, it was treated with 1, 10, 100 ppm of unripe Citrus unshiu fruit extract, or 10, 100 and 200 μM of synephrine, respectively and then was treated simultaneously with 50 ng/ml of interleukin-4 (R&D, Minneapolis Minn., IL-4), cultivated for 24 hours to collect cell culture media. After extracting tRNA from the collected cells, a complementary DNA (cDNA) was synthesized based on the extracted tRNA and then, a quantitative Real-time PCR was performed by using the synthesized complementary DNA as a template to determine the degree of expression for mRNA of eotaxin-1. The results are represented in FIG. 3.
# STAT6 [3] = assay: translocation of STAT6 into the nucleus, confocal microscopy; format: cell-based; details: 200 μM synephrine for 60 minutes, then 50 ng/ml IL-4 for 24 hours; NIH/3T3
# Description: Human normal fibroblast (human normal fibroblast, NIH/3T3, department of dermatology in Aju University) was inoculated into 24-well microplate with DMEM media so as to be about 2×10^5 cells per well, and cultured in 5% concentration of CO2 cultivator under the condition of 37° C. for 24 hours. And then, it was treated with 200 μM of synephrine for 60 minutes, respectively and then was treated with 50 ng/ml of IL-4 to cultivate for 24 hours. And then, the cells was immobilized with paraformaldehyde (PFA) and treated with the primary antibody specifically reacting with STAT6. […] The results are represented in FIG. 5.
# [4] = system: children of atopy patients; assay: effect for improving atopy of cream, EASI score; format: in vivo, human; details: for EASI score (5 = no improvement, 0 = many improvements): cream 0.03 or 0.01% by weight, twice per day, 30 children
# Description: Creams comprising the unripe Citrus unshiu fruit extract or synephrine isolated from it, having the ingredients and contents shown in below Table 2 were prepared. Specifically, aqueous phase, the purified water, triethanolamine and propylene glycol were heated to 70° C. to dissolve them, and then to it added the liquid in which oil phase, fatty acid, oily component, emulsifier and preservative were heated to 70° C. to dissolve them and stirred with homomixer (Tokushu Kika Ltd., Japan) to emulsify them. After the emulsifying them was completed, the said solution was cooled to 45° C., 0.03% by weight or 0.01% by weight of the unripe Citrus unshiu fruit extract or synephrine based on the total weight of the composition was added, dispersed and then cooled to 30° C.
# Cream comprising 0.03 or 0.01% by weight of the unripe Citrus unshiu fruit extract or synephrine isolated from it, prepared according to the method of 10-1 as above was used for 30 children of atopy patients twice per day for 4 weeks. The control used the cream comprising the purified water instead of the unripe Citrus unshiu fruit extract or synephrine.
# The effect improving atopy was determined by using Eczema Area Severity Index (EASI) score, the determination criterion was set as 5 for the case that there is no improvement of atopy, and 0 for the case that there are many improvements of atopy and the relative values were compared.
# eotaxin-1 [5] = assay: eotaxin-1 reporter gene (luciferase) promoter activity in IL-4 treated fibroblast; format: cell-based; details: 10, 100 and 200 μM synephrine; 50 ng/ml IL-4; 24 hours; NIH/3T3
# Description: Human normal fibroblast (human normal fibroblast, NIH/3T3, department of dermatology in Aju University) was transformed by inserting Eotaxin-1 reporter gene into it with superfect (Quigen Co.), and then cultured in 5% concentration of CO2 cultivator under the condition of 37° C. for 24 hours. And then, the transformed fibroblast was inoculated into 24-well microplate with DMEM media so as to be about 2×10^5 cells per well, and treated with 1, 10, 100 ppm of unripe Citrus unshiu fruit extract, or 10, 100 and 200 μM of synephrine, respectively and then was treated simultaneously with 50 ng/ml of interleukin-4 (R&D, Minneapolis Minn., IL-4) known to induce eotaxin-1, cultivated for 24 hours to collect cells. Then, the collected cells were crushed and reacted with a substrate of luciferase to determine luminescence, and a promoter activity of eotaxin-1 was determined. The results are represented in FIG. 1.
# human skin = assay: accumulated patch test for safety to the human skin; format: in vivo; details: for Mean reaction degree: 30 adults, 9 patches, less than 3 = safe
# Description: In order to identify as to whether the unripe Citrus unshiu fruit extract or synephrine isolated from the unripe Citrus unshiu fruit is safe or not, the skin external preparation based on squalene wherein 1, 10 and 100 ppm of the unripe Citrus unshiu fruit extract prepared in Example 1 were added, was prepared, and the skin external preparation wherein 10, 150 and 300 ppm of synephrine of Example 2 were added, were prepared, respectively.
# Then, the skin external preparations were applied as a patch to areas of humerus of 30 adults for accumulated 24 hours on alternate day in total 9 times to test as to whether synephrine stimulates the skin. The control used the skin external preparation based on squalene wherein the unripe Citrus unshiu fruit extract or synephrine was not comprised.
# The patch used Finn chamber (Epitest Ltd, Filand) and the patch was practiced after dropping with 15 μl of the skin external preparations prepared from the above, respectively. The degree of the reaction represented on the skin in every time was scored by using the below experimental formula 1. Mean reaction degree=[{(reaction index×reaction degree)/(total number of the subject×the highest score (four point))}×100]/times of the test [Experimental Formula 1]
# At this time, in the reaction degree, ± represents 1 score (point), + represents 2 score and ++ represents 4 score,
# When the mean reaction degree is less than 3, it is considered as being the safe composition.
# eosinophil = eosinophil transmigration in co-cultivation with IL-4 treated fibroblast; format: cell-based; details: 10, 100 and 200 μM synephrine; 50 ng/ml IL-4; 24 hours
# Description: Human normal fibroblast (human normal fibroblast, NIH/3T3, department of dermatology in Aju University) was inoculated into 24-well co-cultivation plate with DMEM media so as to be about 2×10^5 cells per well, and cultured in 5% concentration of CO2 cultivator under the condition of 37° C. for 24 hours. And then, it was treated with 10, 100 and 200 μM of synephrine for 60 minutes, respectively and then 50 ng/ml of IL-4 was treated to induce the expression of eotaxin-1. Simultaneously, eosinophil was inoculated and cultivated for 24 hours. After the cultivation, the transmigration degree of eosinophil moved through the membrane to bottom of the plate was determined. The determination was measured via a fluorescence staining by using CytoSelect™ 24-Well Cell Migration Assay kit (Cell biolabs, INC., USA). The results are represented in FIG. 6.
structure (smiles),measurement,setting,value
"CNCC(O)c1ccc(O)cc1 (stereo not drawn) [synephrine, 4-[1-hydroxy-2-(methylamino)ethyl]phenol]",phosphorylation of STAT6 derived by IL-4,STAT6 [1],effectively inhibits
same,extracellular secretion of eotaxin-1 derived by IL-4,eotaxin-1 [2],reduced
same,expression of mRNA of eotaxin-1 derived by IL-4,eotaxin-1 mRNA,reduced
same,translocation of STAT6 derived by IL-4 into the nucleus,STAT6 [3],inhibits
same,"EASI score (5 = no improvement, 0 = many improvements)",[4]; 1st week,2.82
same,"EASI score (5 = no improvement, 0 = many improvements)",[4]; 2nd week,1.51
same,"EASI score (5 = no improvement, 0 = many improvements)",[4]; 4th week,0.63
same,EASI score compared to the control,[4]; cream used for 4 weeks,reduced compared to the control
same,promoter activity of eotaxin-1 derived by IL-4,eotaxin-1 [5],reduced
same,skin reaction in the patch test,"human skin; 10, 150 and 300 ppm, all test groups, all 9 patches",did not represent the skin reaction
same,Mean reaction degree,human skin; 10 ppm in squalene-based skin external preparation,0.00
same,Mean reaction degree,human skin; 150 ppm in squalene-based skin external preparation,0.00
same,Mean reaction degree,human skin; 300 ppm in squalene-based skin external preparation,0.00
same,"safety to the human skin, judged from mean reaction degree","human skin; all tested concentrations, mean reaction degree less than 3 = safe",safe material
same,movement of eosinophil derived by eotaxin-1 expressed from the treatment of IL-4,eosinophil,inhibits
